Results taken from BindingDB's records for doi:10.1021/jm040037k (Abbott Laboratories, 2004).
Square brackets hold non-standard residues; d marks the D form. Peptide text beside a SMILES is read from it. * marks the point of attachment. Tle = CC(C)(C)[C@H](N)C(=O)O; NMeA = CN[C@@H](C)C(=O)O; βNA = c1ccc2cc(N*)ccc2c1

Target: T1, E3 ubiquitin-protein ligase XIAP [241-356] (Homo sapiens, UniProt P98170)
T1 construct: 241-356
Assay: Ligand Binding Assay
Conditions: pH 7.4; 22 °C
Procedure: A fluorescence polarization anisotropy (FPA) competition assay was used to determine the affinities of compounds to BIR3 protein. Fluorescence polarization measurements were carried out on an Analyst 96-well plate reader. 6-Carboxyfluorescein (FAM) labeled peptides with the sequences AVPIAQK (FAM)-NH2 was used as a probe. Dissociation constants were determined from titration curves with in-house written software.

T1 sequence (P98170 241-356): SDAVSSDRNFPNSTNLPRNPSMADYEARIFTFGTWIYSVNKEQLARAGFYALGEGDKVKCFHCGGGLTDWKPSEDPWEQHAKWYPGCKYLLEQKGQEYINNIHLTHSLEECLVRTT

Compound	Kd
C[C@@H](C(=O)N[C@H](C(=O)N1CCC[C@H]1C(=O)N[C@@H]1CCCc2ccccc21)C1CCCCC1)N(C)C [(2S)-1-[(2S)-2-cyclohexyl-2-[(2S)-2-(dimethylamino)propanamido]acetyl]-N-[(1R)-1,2,3,4-tetrahydronaphthalen-1-yl]pyrrolidine-2-carboxamide]	> 1 µM
CN[C@@H](C)C(=O)N[C@H](C(=O)N1CCC[C@H]1C(=O)Nc1ccc2ccccc2c1)C(C)(C)C [(2S)-1-[(2S)-3,3-dimethyl-2-[(2S)-2-(methylamino)propanamido]butanoyl]-N-(naphthalen-2-yl)pyrrolidine-2-carboxamide] (H-[NMeA]-[Tle]-Pro-βNA)	> 1 µM
CN[C@@H](C)C(=O)N[C@H](C(=O)N1CCC[C@H]1C(=O)N[C@@H]1CCc2ccccc21)C(C)(C)C [(2S)-N-[(1R)-2,3-dihydro-1H-inden-1-yl]-1-[(2S)-3,3-dimethyl-2-[(2S)-2-(methylamino)propanamido]butanoyl]pyrrolidine-2-carboxamide]	0.029 µM
C[C@@H](C(=O)N[C@H](C(=O)N1C[C@@H](Oc2ccccc2)C[C@H]1C(=O)N[C@@H]1CCCc2ccccc21)C(C)(C)C)N(C)C [(2S,4S)-1-[(2S)-2-[(2S)-2-(dimethylamino)propanamido]-3,3-dimethylbutanoyl]-4-phenoxy-N-[(1R)-1,2,3,4-tetrahydronaphthalen-1-yl]pyrrolidine-2-carboxamide]	> 1 µM
CN[C@@H](C)C(=O)N[C@H](C(=O)N1CCC[C@H]1C(=O)N[C@H]1CCc2ccccc21)C(C)(C)C [H-N-Me-Ala-Tle-Pro-(S)-indan-1-yl Amide]	> 1 µM
CN[C@@H](C)C(=O)N[C@H](C(=O)N1CCC[C@H]1C(=O)Nc1cccc2ccccc12)C(C)(C)C [H-N-Me-Ala-Tle-Pro-naphth-1-yl Amide]	> 0.5 µM
C[C@@H](C(=O)N[C@H](C(=O)N1CCC[C@H]1C(=O)N[C@@H]1CCCc2ccccc21)C(C)(C)C)N(C)C [(2S)-1-[(2S)-2-[(2S)-2-(dimethylamino)propanamido]-3,3-dimethylbutanoyl]-N-[(1R)-1,2,3,4-tetrahydronaphthalen-1-yl]pyrrolidine-2-carboxamide]	> 1 µM
CN[C@@H](C)C(=O)N[C@H](C(=O)N1CCC[C@H]1C(=O)NC1c2ccccc2-c2ccccc21)C(C)(C)C [H-N-Me-Ala-Tle-Pro-fluoren-9-yl Amide]	0.047 µM
